pKd: −log10 of the molar value.
How the values were obtained:
[1] = target: T1, human FGF-1 (hFGF-1) mutant R136E, SEQ ID NO: 4 (Homo sapiens, UniProt P05230, R137E); assay: Isothermal titration calorimetry (ITC) of FGF-1 mutant R136E with SOS; type: binding; settings: 10 mM phosphate, 100 mM NaCl, 50 mM ammonium sulfate, pH 6.5, 25° C., FIG. 10C, read-out: dissociation constant (Kd)
T1 construct: made in house
Experimental: (§1) For WT hFGF-1, and mutant proteins were in the cell and at a concentration of 0.05 mM in a buffer of 10 mM phosphate, 100 mM NaCl, 50 mM ammonium sulfate, pH 6.5. […] The data was analyzed using Origin scientific plotting software.
(§2) ITC is a method used to directly evaluate the affinity and enthalpy of binding reactions.

[2] = target: T2, human FGF-1 (hFGF-1), wild type (wtFGF-1), SEQ ID NO: 2 (Homo sapiens, UniProt P05230); assay: Isothermal titration calorimetry (ITC) of wild-type FGF-1 with SOS; type: binding; settings: FIG. 10A
T2 construct: made in house
Experimental: as §1, §2

T2 sequence (P05230 16-155): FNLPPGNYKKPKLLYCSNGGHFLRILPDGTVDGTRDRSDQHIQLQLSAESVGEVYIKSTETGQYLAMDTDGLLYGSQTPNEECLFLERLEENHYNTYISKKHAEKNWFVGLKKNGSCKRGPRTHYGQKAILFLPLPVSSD
T1 sequence (P05230 16-155 R137E): as the sequence (P05230 16-155) above, with R122E counted along it

- pKd [1]: 4.14
- pKd ([2]; 10 mM phosphate, 100 mM NaCl, 50 mM ammonium sulfate, pH 6.5, 25° C., read-out: dissociation constant (Kd)): 5.59
- affinity to SOS (binding isotherm) ([2]; compared with R136E, result in words): strong affinity
SMILES: O=S(=O)(O)OC[C@H]1O[C@@](COS(=O)(=O)O)(O[C@H]2O[C@H](COS(=O)(=O)O)[C@@H](OS(=O)(=O)O)[C@H](OS(=O)(=O)O)[C@H]2OS(=O)(=O)O)[C@@H](OS(=O)(=O)O)[C@@H]1OS(=O)(=O)O [SOS, sucrose octasulfate]
